# Assay results: publication PMC4585962, “A peptide factor secreted by Staphylococcus pseudintermedius exhibits properties of both bacteriocins and virulence factors” (Scientific Reports, 2015)
# “Also recorded” adds a separate entry of the source. No end group written: not given here. *: point of attachment. For = O=C*
# Assays:
# [1] = Conformational stability by CD, ellipticity at 220 nm against temperature; assay type: physicochemical; settings: 125 μg/ml in PBS, 20–90 °C at 1 °C/min
# Description: The circular dichroism (CD) spectra of BacSp222 (125 μg/ml in PBS) were recorded using a J-715 spectropolarimeter (Jasco). The spectra were recorded at room temperature in the range 190–240 nm and were averaged over three independent passes. The amount of secondary structures was estimated by fitting the measured spectra to the reference spectra of natural native proteins (Prot, Jasco) or synthetic polypeptides (Yang, Jasco). To evaluate the conformational stability of the BacSp222 molecule at different temperatures, the ellipticity of the polarized light was recorded at 220 nm over the temperature range 20–90 °C at 1 °C/min increments.
# [2] = Hydrodynamic diameter by dynamic light scattering; assay type: physicochemical; settings: 0.2 mg/ml in PBS, room temperature, filtered 0.2 μm, average of three independent measurements; suggests elongated shape or dimers
# Description: The hydrodynamic diameter of the BacSp222 molecule was determined at room temperature by the dynamic light scattering (DLS) technique using a Zetasizer Nano ZS apparatus (Malvern Instruments); a 0.2 mg/ml solution of the peptide in phosphate buffered saline (PBS) was used for analysis. Prior to measurements, the solution was filtered through a 0.2 μm bioinert membrane (Sigma). The obtained spectra were averaged over three independent measurements. The size of BacSp222 was also evaluated by gel filtration chromatography using a Superdex Peptide 10/300 GL column (GH Healthcare) operated in PBS with a 0.3 ml/min flow rate.
# FPRL-1 = biological target: T1, FPRL-1 (Homo sapiens, UniProt P25090); experiment: Formyl peptide receptor assay, cAMP-GLO, recombinant CHO-K1 cells; assay type: cell-based; settings: 10 pM–5 μM BacSp222, CHO-K1 cells overexpressing FPRL-1, cAMP-GLO; fMLP positive control (data not shown)
# T1 construct: host or cells: CHO-K1
# Description: Activation of the cellular formyl-peptide receptor was assayed using cAMPZen FroZen N-formyl peptide (FPRL1) human recombinant CHO-K1 cells (Perkin-Elmer) and a cAMP-GLO bioluminescent assay (Promega) largely according to the protocols provided by the manufacturers. Formyl-methionyl-leucyl-phenylalanine peptide (fMLP, Sigma) was used as a positive control, and the BacSp222 concentrations tested were 0.01, 0.1, 1.0, 10, 100, 1000, and 5000 nM.
# S. aureus = experiment: Bactericidal test, plating on TSA after incubation; assay type: cell-based, Staphylococcus aureus; settings: 1 × 10^4 CFU incubated with 1 μM bacteriocin for 30 minutes (data not shown)
# HSF cells = experiment: Cell membrane integrity, propidium iodide / FDA fluorescence microscopy; assay type: cell-based, human; settings: media contained 0.5 or 15 μM BacSp222 (concentration of these values not stated), three independent experiments ± SD
# proteinase K = biological target: T2, proteinase K (Parengyodontium album, UniProt P06873); experiment: Susceptibility to proteolysis, residual bactericidal activity; assay type: in vitro ADME; settings: 30 μM peptide, 100 mM Tris-HCl pH 8.0 with 5 mM CaCl2, enzyme:peptide 1:50 or 1:10 (w/w), 3 hours, 37 °C; residual activity by radial diffusion assay on B. subtilis; triplicate
# T2 construct: purchased A&A Biotechnology
# Description: (§1) The bactericidal activity of BacSp222 was also determined using the radial diffusion assay. In TSB agar (1%, w/v) containing a 200× diluted overnight culture of Bacillus subtilis ATCC 6633, wells of 2.4-mm diameter were created by drilling out the agar and filling the hole with 10 μl of the BacSp222 preparation for testing. Following overnight incubation at 37 °C, the bactericidal activity was measured as the area of the inhibition zones.
# (§2) The temperature stability of BacSp222 (30 μM final concentration) was determined in PBS. The solution was incubated for 1 or 3 h at 72 °C (typical temperature of pasteurization) or at 100 °C. Independently, a solution of bacteriocin was also subjected to a full cycle of autoclaving (20 min at 121 °C). The susceptibility of BacSp222 to proteolysis was verified using S. aureus staphopain C and V8 peptidase, human neutrophil elastase, human cathepsin G (Biocentrum), bovine TPCK-treated trypsin, pepsin from porcine gastric mucosa (Sigma), and proteinase K (A&A Biotechnology). The dried samples of BacSp222 were dissolved to a final concentration of 30 μM in the following buffers: 100 mM Tris-HCl pH 8.0 containing 5 mM CaCl2 (for trypsin and proteinase K), 100 mM Tris-HCl pH 7.5 containing 5 mM cysteine hydrochloride and 5 mM EDTA (for staphopain C), 100 mM Tris-HCl pH 8.0 (for elastase), 100 mM Tris-HCl pH 7.5 containing 500 mM NaCl (for cathepsin G), 100 mM sodium phosphate pH 7.8 (for V8 peptidase), and 100 mM ammonium acetate pH 4.0 (for pepsin). The peptidases were added at 1:50 or 1:10 (enzyme:BacSp222) ratios by weight, and the mixtures were incubated for 1 or 3 h at 37 °C. The residual activity was determined with the radial diffusion assay using Bacillus subtilis as an indicator strain. All of the above experiments were performed in triplicate.
# [3] = biological target: T3, bovine TPCK-treated trypsin (Bos taurus, UniProt P00760); experiment: as above; assay type: in vitro ADME; settings: 30 μM peptide, 100 mM Tris-HCl pH 8.0 with 5 mM CaCl2, enzyme:peptide 1:50 or 1:10 (w/w), 3 hours, 37 °C; residual activity by radial diffusion assay on B. subtilis; triplicate
# T3 construct: purchased Sigma
# Description: as §1, §2
# [4] = biological target: T4, human neutrophil elastase (Homo sapiens, UniProt P08246); experiment: as above; assay type: in vitro ADME; settings: 30 μM peptide, 100 mM Tris-HCl pH 8.0, enzyme:peptide 1:50 or 1:10 (w/w), 3 hours, 37 °C; residual activity by radial diffusion assay on B. subtilis; triplicate
# T4 construct: purchased Biocentrum
# Description: as §1, §2
# [5] = biological target: T5, pepsin from porcine gastric mucosa (Sus scrofa, UniProt P00791); experiment: as above; assay type: in vitro ADME; settings: 30 μM peptide, 100 mM ammonium acetate pH 4.0, enzyme:peptide 1:50 or 1:10 (w/w), 3 hours, 37 °C; residual activity by radial diffusion assay on B. subtilis; triplicate
# T5 construct: purchased Sigma; host or cells: porcine gastric mucosa
# Description: as §1, §2
# human cathepsin G = biological target: T6, human cathepsin G (Homo sapiens, UniProt P08311); experiment: as above; assay type: in vitro ADME; settings: 30 μM peptide, 100 mM Tris-HCl pH 7.5 with 500 mM NaCl, enzyme:peptide 1:50 or 1:10 (w/w), 3 hours, 37 °C; residual activity by radial diffusion assay on B. subtilis; triplicate
# T6 construct: purchased Biocentrum
# Description: as §1, §2
# T1 sequence (P25090 whole entry): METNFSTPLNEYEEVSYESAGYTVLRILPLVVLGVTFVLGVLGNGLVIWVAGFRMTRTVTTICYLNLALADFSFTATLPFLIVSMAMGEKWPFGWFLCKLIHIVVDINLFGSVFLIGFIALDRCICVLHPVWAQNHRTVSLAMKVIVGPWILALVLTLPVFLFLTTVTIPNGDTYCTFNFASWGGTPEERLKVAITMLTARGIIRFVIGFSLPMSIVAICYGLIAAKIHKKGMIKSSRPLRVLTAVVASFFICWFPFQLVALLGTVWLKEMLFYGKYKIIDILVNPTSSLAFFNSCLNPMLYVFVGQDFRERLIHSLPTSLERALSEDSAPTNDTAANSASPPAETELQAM
# T6 sequence (P08311 21-255): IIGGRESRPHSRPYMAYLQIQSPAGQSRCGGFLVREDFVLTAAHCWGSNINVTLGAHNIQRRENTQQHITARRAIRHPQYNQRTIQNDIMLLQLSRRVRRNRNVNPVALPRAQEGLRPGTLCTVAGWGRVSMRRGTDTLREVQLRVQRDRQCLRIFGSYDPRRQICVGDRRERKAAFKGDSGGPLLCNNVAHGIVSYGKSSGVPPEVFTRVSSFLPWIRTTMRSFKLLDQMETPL
# T5 sequence (P00791 60-385): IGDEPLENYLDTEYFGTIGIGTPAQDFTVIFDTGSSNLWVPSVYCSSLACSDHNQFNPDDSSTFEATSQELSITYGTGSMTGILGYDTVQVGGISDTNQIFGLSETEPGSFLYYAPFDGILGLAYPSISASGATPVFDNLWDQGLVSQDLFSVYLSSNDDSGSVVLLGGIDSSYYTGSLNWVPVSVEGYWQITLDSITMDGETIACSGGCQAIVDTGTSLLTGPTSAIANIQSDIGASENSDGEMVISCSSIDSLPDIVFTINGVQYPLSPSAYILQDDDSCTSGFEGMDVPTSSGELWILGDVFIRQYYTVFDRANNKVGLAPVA
# T4 sequence (P08246 30-267): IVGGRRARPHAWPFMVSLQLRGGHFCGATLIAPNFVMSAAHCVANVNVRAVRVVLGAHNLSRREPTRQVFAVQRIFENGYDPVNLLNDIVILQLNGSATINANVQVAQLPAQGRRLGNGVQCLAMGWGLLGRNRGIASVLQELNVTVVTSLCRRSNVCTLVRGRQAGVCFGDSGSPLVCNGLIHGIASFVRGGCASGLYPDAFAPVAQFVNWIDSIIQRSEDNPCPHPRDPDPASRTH
# T3 sequence (P00760 24-246): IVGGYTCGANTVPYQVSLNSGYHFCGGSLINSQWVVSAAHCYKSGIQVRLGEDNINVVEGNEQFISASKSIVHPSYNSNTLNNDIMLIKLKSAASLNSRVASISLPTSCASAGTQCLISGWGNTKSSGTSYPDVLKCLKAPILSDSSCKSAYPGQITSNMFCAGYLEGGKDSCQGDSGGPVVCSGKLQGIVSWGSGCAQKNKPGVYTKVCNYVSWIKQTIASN
# T2 sequence (P06873 106-384): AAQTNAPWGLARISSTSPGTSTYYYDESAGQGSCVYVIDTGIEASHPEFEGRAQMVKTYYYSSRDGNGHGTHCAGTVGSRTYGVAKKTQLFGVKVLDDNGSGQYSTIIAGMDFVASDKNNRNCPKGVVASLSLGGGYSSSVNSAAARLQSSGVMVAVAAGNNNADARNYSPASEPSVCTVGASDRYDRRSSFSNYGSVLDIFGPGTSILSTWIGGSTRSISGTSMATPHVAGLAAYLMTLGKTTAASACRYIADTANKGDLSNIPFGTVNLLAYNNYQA
substance,measurement,setting,value
For-MAGLLRFLLSKGRALYNWAKSHVGKVWEWLKSGATYEQIKEWIENALGWR [BacSp222],ellipticity at 220 nm at elevated temperatures,[1],"lack of changes in ellipticity at 220 nm, up to 90 °C"
same,hydrodynamic diameter estimated by DLS,[2],3.68 nm
same,stimulation of formyl-peptide receptor,FPRL-1,not able to stimulate; also recorded: did not activate
same,colonies after plating on TSA,S. aureus,complete absence of the colonies
same,PI-positive cells,HSF cells; 0.5 hours of incubation,39 ± 13.5%
same,PI-positive cells,HSF cells; 2 hours of incubation,74 ± 6.7%
same,PI-positive cells,HSF cells; 4 hours of incubation,97 ± 3.7%
same,activity of BacSp222 after incubation with the enzyme,proteinase K,not significantly reduced
same,activity of BacSp222 after incubation with the enzyme,[3],not significantly reduced
same,activity of BacSp222 after incubation with the enzyme,[4],not significantly reduced
same,activity of BacSp222 after incubation with the enzyme,[5],not significantly reduced
same,activity of BacSp222 after incubation with the enzyme,human cathepsin G,not significantly reduced
